Read-outs that look alike come from different tables or passages of the source.
Columns and labels:
[1] = system: Panc 05.04 cells (SF3b K700E mutant); experiment: Cell proliferation and viability, CellTiter-Glo, 72 hours; type: cell-based; details: for GI50: geometric mean
How it was run: (§1)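 RPMI-1640/10% FBS (Panc: + insulin, FBS 15%); 11-pt half-log dose, ~10 μM-100 pM, 0.1% DMSO; 37° C, 5% CO2; ATP luminescence read; % inhibition vs T0 and vehicle, −100% cidal to 100% uninhibited growth.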

[2] = system: NCI-H1568 cells (high MCL1); experiment: as above; type: cell-based; details: for GI50: geometric mean
How it was run: as §1

[3] = biological target: T1, SF3b complexes (Homo sapiens, UniProt O75533+Q7RTV0); experiment: Scintillation proximity assay (SPA) with [3H]-labelled pladienolide probe; type: binding; details: SF3B1 (WT); geometric mean; read-out: SPA-ATS GMean IC50 (nM) SF3B1 (WT)
T1 construct: endogenous in cells; host or cells: Nuclear extracts; A HeLa S3 extract preparation is described for the in vitro splicing assay
How it was run: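 SF3b complexes captured from nuclear extracts on anti-SF3B1 antibody SPA beads; test compounds pre-incubated 30 min before 2.5 nM [3H]-pladienolide probe added, then 30 min incubation. Bound probe read by scintillation; values from non-linear regression of concentration–response curves.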

[4] = system: Ad2 variant pre-mRNAs spliced in HeLa S3 nuclear extracts; experiment: In vitro splicing assay (IVS), RT-qPCR of spliced product; type: biochemical; details: for IC50: geometric mean; for Ratio Ad2.1/2.2: ratio of IVS IC50 Ad2.1 to Ad2.2
How it was run: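 Read-out is one-step TaqMan RT-qPCR of spliced Ad2 mRNA with Ftz as reference, normalized to DMSO and fit by non-linear regression. Reactions held HeLa S3 nuclear extract, 2 ng Ad2-derived pre-mRNA and test compound, with 15 min preincubation. Splicing was started with ATP-containing activation buffer and run 90 min at 30 °C.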

[5] = 72 h, PANC0504.1, -100% = cidal, 0% = static, 100% = uninhibited growth
[6] = 72 h, NCIH1568.1, -100% = cidal, 0% = static, 100% = uninhibited growth
[7] = Ad2.1 pre-mRNA substrate, read-out: qPCR-IVS-ATS GMean IC50 (nM) Ad2.1
[8] = Ad2.2 pre-mRNA substrate, read-out: qPCR-IVS-ATS GMean IC50 (nM) Ad2.2
[9] = PANC0504.1 cells, 72 h, −100% cidal, 0% static, 100% maximal growth
[10] = Panc 05.04, read-out: CTGlo-ATS GMean GI50 (nM) 72 h PANC0504.1, PANC0504.1 cells, 72 h
[11] = NCI-H1568, read-out: CTGlo-ATS GMean GI50 (nM) 72 h NCIH1568.1, NCIH1568.1 cells, 72 h
[12] = NCIH1568.1 cells, 72 h, −100% cidal, 0% static, 100% maximal growth

| SMILES | CTGlo-ATS Mean MinResponse % 72 h PANC0504.1 [1, 5] | GI50 ([1]; Panc 05.04, 72 h, read-out: CTGlo-ATS GMean GI50 (nM) 72 h PANC0504.1, 72 h, PANC0504.1) | CTGlo-ATS Mean MinResponse % 72 h NCIH1568.1 [2, 6] | GI50 ([2]; NCI-H1568, 72 h, read-out: CTGlo-ATS GMean GI50 (nM) 72 h NCIH1568.1, 72 h, NCIH1568.1) | IC50 [3] | IC50 [4, 7] | IC50 [4, 8] | Ratio Ad2.1/2.2 [4] | CTGlo-ATS Mean MinResponse % 72 h PANC0504.1 [1, 9] | GI50 [1, 10] | GI50 [2, 11] | CTGlo-ATS Mean MinResponse % 72 h NCIH1568.1 [2, 12] | GI50 ([1]; Panc 05.04, read-out: CTGlo-ATS GMean GI50 (nM) 72 h PANC0504.1, 72 h, PANC0504.1) | GI50 ([2]; NCI-H1568, read-out: CTGlo-ATS GMean GI50 (nM) 72 h NCIH1568.1, 72 h, NCIH1568.1) |
| --- | --- | --- | --- | --- | --- | --- | --- | --- | --- | --- | --- | --- | --- | --- |
| [2H]C([2H])([2H])N1CCN(C(=O)O[C@H]2/C=C/C(C)C(/C(C)=C/c3cc(F)cc(N4CCOCC4)c3)OC(=O)CC(O)CC[C@@H]2C)CC1 (stereo in doubt) [Compound 220, [(2R,3R,4E,6R,7S,10S)-2-[(E)-1-(3-fluoro-5-morpholin-4-ylphenyl)prop-1-en-2-yl]-10-hydroxy-3,7-dimethyl-12-oxo-1-oxacyclododec-4-en-6-yl] 4-(trideuteriomethyl)piperazine-1-carboxylate] | −90.506% | 4.36 nM | −76.936% | 2.01 nM | 3.17 nM | 19.3 nM | 14.4 nM | 1.344 |  |  |  |  |  |  |
| C/C(=C\c1ccc2cn[nH]c2c1)[C@H]1OC(=O)C[C@H](O)CC[C@H](C)[C@@H](OC(=O)N2CCN(C)CC2)/C=C/[C@@H]1C [Compound 4] |  |  |  |  | 3.8 nM | > 25000 nM | 58.7 nM |  | −27.423% | 26.9 nM | 15.5 nM | −46.416% |  |  |
| C/C(=C\c1cc(F)cc(NC(=O)CC2CC2)c1)[C@H]1OC(=O)C[C@H](O)CC[C@H](C)[C@@H](OC(=O)N2CCN(C)CC2)/C=C/[C@@H]1C [Compound 250, [(2S,3S,4E,6R,7S,10R)-2-[(E)-1-[3-[(2-cyclopropylacetyl)amino]-5-fluorophenyl]prop-1-en-2-yl]-10-hydroxy-3,7-dimethyl-12-oxo-1-oxacyclododec-4-en-6-yl] 4-methylpiperazine-1-carboxylate] | −94.381% |  | −58.677% |  | 3.63 nM | 2190 nM | 44.1 nM | 49.517 |  |  |  |  | 23.1 nM | 15.6 nM |
| C/C(=C\c1cc(F)cc(N(C)C2CCS(=O)(=O)CC2)c1)[C@H]1OC(=O)C[C@H](O)CC[C@H](C)[C@@H](OC(=O)N2CCN(C)CC2)/C=C/[C@@H]1C [Compound 172] |  |  |  |  | 5.58 nM | 22.6 nM | 15.4 nM |  | −88.455% | 17.9 nM | 8.72 nM | −74.177% |  |  |
| C/C(=C\c1cc(F)cc(N2CCN(C(=O)CC3CC3)CC2)c1)[C@H]1OC(=O)C[C@H](O)CC[C@H](C)[C@@H](OC(=O)N2CCN(C)CC2)/C=C/[C@@H]1C [Compound 121] |  |  |  |  | 2.99 nM | 25.5 nM | 22 nM |  | −88.956% | 3.73 nM | 2.66 nM | −80.331% |  |  |
| C/C(=C\c1cc(F)cc(N2CCN(CCO)C(=O)C2)c1)[C@H]1OC(=O)C[C@H](O)CC[C@H](C)[C@@H](OC(=O)N2CCN(C)CC2)/C=C/[C@@H]1C [Compound 104] |  |  |  |  | 2.1 nM | 31.9 nM | 13.9 nM |  | −86.795% | 4.58 nM | 5.1 nM | −69.040% |  |  |
| C/C(=C\c1cccc2[nH]ncc12)[C@H]1OC(=O)C[C@H](O)CC[C@H](C)[C@@H](OC(=O)N2CCN(C)CC2)/C=C/[C@@H]1C [Compound 5] |  |  |  |  | 6.61 nM | 1500 nM | 94.7 nM |  | −17.631% | 47.2 nM | 59.7 nM | −38.293% |  |  |
| C/C(=C\c1cc(F)cc(N(C)C2CCN(S(C)(=O)=O)CC2)c1)[C@H]1OC(=O)C[C@H](O)CC[C@H](C)[C@@H](OC(=O)N2CCN(C)CC2)/C=C/[C@@H]1C [Compound 174] |  |  |  |  | 3.14 nM | 13.1 nM | 10.7 nM |  | −80.529% | 6.04 nM | 3.86 nM | −92.525% |  |  |

Source: patent publication US11679107B2 (Eisai R&D Management Co., Ltd., priority 2018, dated 2023)
